Earlier results in patent US20050171000A1, “Three dimensional coordinates of melanocortin-4 receptors” (The Procter & Gamble Company, priority 2003, published 2005).

Biological target: T1, MC4-R (Rattus norvegicus, UniProt P70596)
T1 construct: host or cells: living rats, intraventricular administration (endogenous receptor)
Conditions: intraventricular administration

T1 sequence (P70596 whole entry): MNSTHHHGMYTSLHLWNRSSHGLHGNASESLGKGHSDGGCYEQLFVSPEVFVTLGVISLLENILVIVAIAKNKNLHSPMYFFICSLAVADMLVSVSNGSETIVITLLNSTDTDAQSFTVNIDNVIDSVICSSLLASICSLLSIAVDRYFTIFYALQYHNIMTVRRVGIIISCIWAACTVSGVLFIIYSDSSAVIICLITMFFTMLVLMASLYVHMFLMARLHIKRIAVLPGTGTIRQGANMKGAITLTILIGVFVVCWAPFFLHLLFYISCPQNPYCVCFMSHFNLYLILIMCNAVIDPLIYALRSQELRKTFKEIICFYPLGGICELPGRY

Substance: MTII
- food intake: reduced
